Measurements reported in US10703733B2, “MCL-1 inhibitors” (Gilead Sciences, Inc., priority 2018, dated 2020).
Where two headings read alike, the source gives them in different places.

Assays:
SKBR3 cells = test: SKBR3 Cell Viability Assay (CellTiter Glo); type: cell-based; details: CellTiter Glo luminescence, read-out: MCL-1 CV SKBR3 EC50
Procedure, shortened: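 Viability read as CellTiter Glo luminescence after 72 h of compound exposure at 37° C./5% CO2, using 6,000 SKBR3 cells per well in McCoy 5A with 10% FBS. Percent inhibition scaled between DMSO wells and 10 μM puromycin wells.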

[1] = biological target: MCL-1/Bim interaction (recombinant human MCL-1 protein, residues 171-327; biotinylated human Bim peptide, residues 51-76) (Homo sapiens (Human), UniProt Q07820); test: MCL-1/Bim Binding AlphaLISA Assay; details: 0.0625 nM 6xHis-Mcl-1 (171-327), 0.0625 nM biotinylated-Bim peptide
Procedure, shortened: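 Compounds first sat 1 h with MCL-1 (171-327, 0.0625 nM), followed by 2 h with biotin-Bim 51-76 (0.0625 nM), then sequential 1 h anti-His acceptor and streptavidin donor bead steps; buffer Hepes pH 7.5 with NaCl, Brij 35, DTT, BSA. AlphaScreen signal converted to % inhibition using DMSO (negative) and protein/peptide-free (positive) controls.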

MCL-1/Bim interaction (recombinant human MCL-1 protein, residues 171-327; biotinylated human Bim peptide, residues 51-76), sequence (Q07820 171-327): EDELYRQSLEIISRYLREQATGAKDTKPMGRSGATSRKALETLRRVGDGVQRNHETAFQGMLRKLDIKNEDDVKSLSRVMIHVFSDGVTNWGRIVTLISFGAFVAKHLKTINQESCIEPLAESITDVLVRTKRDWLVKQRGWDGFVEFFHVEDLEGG

| SMILES | EC50 (SKBR3 cells; Homo sapiens, SK-BR-3, 72 h) | IC50 [1] | EC50 (SKBR3 cells; 72 hours) |
| --- | --- | --- | --- |
| COc1nn(C)cc1C(=O)N[S@@]1(=O)=NC(=O)c2ccc3c(c2)N(C[C@@H]2CC[C@H]2[C@@H](OC)/C=C/[C@H](OC(=O)N(C)C)[C@H](C)C1C(=O)N(C)C)C[C@@]1(CCCc2cc(Cl)ccc21)CO3 (stereo partly drawn) [Example 395] | – | 5.27 nM | 6180 nM |
| CO[C@H]1/C=C/C[C@H](C)C[S@@](=O)(NC(=O)N2CCN(C(=O)OC(C)(C)C)[C@H](C)C2)=NC(=O)c2ccc3c(c2)N(C[C@@H]2CC[C@H]21)C[C@@]1(CCCc2cc(Cl)ccc21)CO3 [Example 382] | 562 nM | 1.4 nM | – |
| CO[C@H]1/C=C/CCC[S@](=O)(NC(=O)N2CCS(=O)(=O)CC2)=NC(=O)c2ccc3c(c2)N(C[C@@H]2CC[C@H]21)C[C@@]1(CCCc2cc(Cl)ccc21)CO3 [Example 74] | 10000 nM | 7.3 nM | – |
| CO[C@H]1/C=C/CCC[S@@](=O)(NC(=O)CCc2cncnc2)=NC(=O)c2ccc3c(c2)N(C[C@@H]2CC[C@H]21)C[C@@]1(CCCc2cc(Cl)ccc21)CO3 [Example 53] | 388 nM | 0.2 nM | – |
| CO[C@H]1/C=C/C[C@H](C)C[S@@](=O)(NC(=O)N2CC(C3COC3)C2)=NC(=O)c2ccc3c(c2)N(C[C@@H]2CC[C@H]21)C[C@@]1(CCCc2cc(Cl)ccc21)CO3 [Example 261] | 72 nM | 0.053 nM | – |
| CO[C@H]1/C=C/CCC[S@@](=O)(NC(=O)C[C@H](O)c2ccccc2)=NC(=O)c2ccc3c(c2)N(C[C@@H]2CC[C@H]21)C[C@@]1(CCCc2cc(Cl)ccc21)CO3 [Example 72] | 262 nM | 0.1 nM | – |
| COc1nc(OC)c(C(=O)N[S@@]2(=O)=NC(=O)c3ccc4c(c3)N(C[C@@H]3CC[C@H]3[C@@H](OC)/C=C/C[C@H](C)C2)C[C@@]2(CCCc3cc(Cl)ccc32)CO4)c(OC)n1 [Example 459] | 194 nM | 0.085 nM | – |

Further lines, with some results ahead:

| EC50 (SKBR3 cells; Homo sapiens, SK-BR-3, 72 h) | IC50 [1] | SMILES | EC50 (SKBR3 cells; 72 hours) |
| --- | --- | --- | --- |
| 721 nM | 0.093 nM | CO[C@H]1/C=C/C[C@H](C)C[S@@](=O)(NC(=O)Nc2ncccn2)=NC(=O)c2ccc3c(c2)N(C[C@@H]2CC[C@H]21)C[C@@]1(CCCc2cc(Cl)ccc21)CO3 [Example 111] | – |
| 136 nM | 0.144 nM | CO[C@H]1/C=C/C[C@H](C)C[S@@](=O)(NC(=O)N[C@@H]2C[C@H]2c2ccnn2C)=NC(=O)c2ccc3c(c2)N(C[C@@H]2CC[C@H]21)C[C@@]1(CCCc2cc(Cl)ccc21)CO3 [Example 182] | – |
| 154 nM | 0.043 nM | COC(=O)N1CC(NC(=O)N[S@@]2(=O)=NC(=O)c3ccc4c(c3)N(C[C@@H]3CC[C@H]3[C@@H](OC)/C=C/C[C@H](C)C2)C[C@@]2(CCCc3cc(Cl)ccc32)CO4)C1 [Example 114] | – |
| 69.5 nM | 0.086 nM | CCn1cc(C(=O)N[S@@]2(=O)=NC(=O)c3ccc4c(c3)N(C[C@@H]3CC[C@H]3[C@@H](OC)/C=C/C[C@H](C)[C@H]2C)C[C@@]2(CCCc3cc(Cl)ccc32)CO4)cn1 [Example 153] | – |
| – | 0.108 nM | CO[C@H]1/C=C/C[C@H](C)C[S@@](=O)(NC(=O)N[C@H]2C[C@@H]2c2cnn(C)c2)=NC(=O)c2ccc3c(c2)N(C[C@@H]2CC[C@H]21)C[C@@]1(CCCc2cc(Cl)ccc21)CO3 (single isomer, unassigned) [Example 184] | 47.2 nM |
| 106 nM | 0.167 nM | COCCn1cc(C(=O)N[S@@]2(=O)=NC(=O)c3ccc4c(c3)N(C[C@@H]3CC[C@H]3[C@@H](OC)/C=C/C[C@H](C)C2)C[C@@]2(CCCc3cc(Cl)ccc32)CO4)cn1 [Example 120] | – |
| 278 nM | 0.187 nM | COC(=O)N1CC[C@@H](C(=O)N[S@@]2(=O)=NC(=O)c3ccc4c(c3)N(C[C@@H]3CC[C@H]3[C@@H](OC)/C=C/C[C@H](C)C2)C[C@@]2(CCCc3cc(Cl)ccc32)CO4)C1 [Example 438] | – |
| 96.4 nM | 0.068 nM | CO[C@H]1/C=C/C[C@H](C)C[S@@](=O)(NC(=O)[C@H]2C[C@H](OC)C2)=NC(=O)c2ccc3c(c2)N(C[C@@H]2CC[C@H]21)C[C@@]1(CCCc2cc(Cl)ccc21)CO3 [Example 128] | – |
